# Results reported in patent publication US20260325465A1, “SHP-1 INHIBITORS FOR TREATING CANCER” (MDX MANAGEMENT LLC, priority 2022, published 2026).
# “Also recorded” adds a separate entry of the source.
# B1: IFNγ: type II interferon (protein, UniProt P01579 24-161, looked up)
# Interferon gamma: QDPYVKEAENLKKYFNAGHSDVADNGTLFLGILKNWKEESDRKIMQSQIVSFYFKLFKNFKDDQSIQKSVETIKEDMNVKFFNSNKKKRDDFEKLTNYSVTDLNVQRKAIHELIQVMAELSPAAKTGKRKRSQMLFRG
# Legend:
# [1] = tested on: PTP/SHP-1 activity in KPC tumor; test: PTP/SHP-1 activity in KPC tumor in vivo; design: species or system murine; conditions: therapeutic treatment of KPC tumor
# [2] = tested on: Human monocyte-derived macrophages; test: Human monocyte-derived macrophage response in tumor milieu configurations; assay type: cell-based; conditions: co-cultured with cancer cells (configuration 3)
# Method: Mechanism by which tumor cells inhibit macrophage proinflammatory response in TME was studied. As shown in panel A of FIG. 19, macrophage responses were assayed in a tumor milieu: Human monocyte-derived macrophages (MØ) were cultured alone (configuration 1), cultured in the presence of cancer cells-conditioned medium (50%) that contained cancer cell secreted factors (secretome; configuration 2), or co-cultured with cancer cells (cell “touch” model; configuration 3), or co-cultured with cancer cells that were placed in a transwell (0.4 μm) without “touching” MØ(configuration 4). Macrophages in these settings were treated with proinflammatory stimuli TLR agonist R848 (l g/ml), R848 plus IFNγ (40 ng/ml), or the sting activator MSA-2 (10 μg/ml).
# [3] = tested on: PTP activity in macrophages; test: PTP activity in macrophages co-cultured with cancer cells and stimulated with IFNγ/LPS or TLR agonists; assay type: cell-based; design: concentration or dose not given beside the values; conditions: induced by IFNγ/LPS or TLR agonists, with cancer cell ligation, 30 min, 37 °C
# Method: (§1) FIGS. 3A-3E depict modulation of SHP-1 activity in proinflammatory macrophages in cancer. Macrophages co-cultured with cancer cells were stimulated with IFNγ/LPS or TLR agonists (αTLR) comprising CpG, polycytidylic acid (i.e., PolyI:C) and R848 (each 0.4 μg/ml) for 30 min (37 °C) in the presence or the absence of different SHP-1 or SHP-2 inhibitor or activator, followed by cell lysis and assays of PTP activity. FIG. 3A depicts SHP-1 activity regulation mechanisms. […] FIG. 3E depicts that PKCθ negatively regulates SHP-1 activity at a moderate level.
# SHP-1 [4] = test: SHP-1 activity in macrophages under proinflammatory stimulation and cancer cell ligation; assay type: cell-based; conditions: IFNγ/LPS stimulation, cancer cell ligation
# Method: FIGS. 2A-2G depict that the inhibition of SHP-1 enhances macrophage proinflammatory response, antigen presentation and phagocytosis in a tumor milieu. FIG. 2A and FIG. 2B depict that SHP-1 activity in macrophages is triggered by proinflammatory stimulation and the extracellular cancer cell ligation (“touching”) of macrophages (green bar in FIG. 2A). […] The SHP-2 inhibitor SHP099 (1 μg/ml) was used in assays. FIG. 2C depicts the inhibition of SHP-1 by TPI-1 dose-dependently recovers IFNγ/LPS-induced activation of STAT1 (p-STAT1) and Erk1/2 (p-Erk1/2) de-activated by SHP-1 (red line). FIG. 2D and FIG. 2E depict that the inhibition of SHP-1 in macrophages by TPI-1 enhances production of proinflammatory cytokines (FIG. 2D) and expression of immunogenic antigen presentation machinery (FIG. 2E) by IFNγ/LPS in a tumor milieu. […] The SHP-1 and SHP-2 inhibitors TPI-1 and SHP099, respectively, was used at 1 μg/ml in assays.
# as §1
# In addition to TPI-1, several other SHP-1 inhibitors such as PTP inhibitor-I, PTP inhibitor-III, and recently reported vitamin E (9, 10) and phomoxanthone A and B (P×A and P×B) (11) were tested. Given that PKCθ modulates SHP-1 activity through phosphorylating Ser591 (12, 13), PKCθ inhibitor and activator were also tested in various assays.
# macrophages [5] = test: Macrophage cytokine production under immunosuppressive or proinflammatory stimulation with cancer cell ligation; assay type: cell-based
# Description: FIGS. 6A-6D depict that the inhibition of SHP-1 promotes anti-tumor effects or pro-tumor effects under different circumstances. FIG. 6A depicts that intratumoral macrophages upregulate expression of iRs (Pir-B, Siglec E, F and G, and SIRPα) along with tumor progression to late-stage large sizes. KPC pancreatic tumors of small sizes (<150 mm^3) and those grown to larger sizes (>800 mm^3) were dissociated to single cells, followed by flow cytometry analyses for cell surface protein expression on macrophages (gated F4/80+). FIG. 6B depicts that the inhibition of SHP-1 alone promotes TME immunosuppression. Excised MC38 solid tumor cubes were treated with SHP-1 inhibitor TPI-1 (100 nM) or vehicle (DMSO) in a cell culture setting. After 24 h, tumor secreting cytokines into the culture medium were assayed by ELISA.
# The SHP-1 activity in non-therapeutic solid tumors is low (see FIGS. 7A-7D), and this low activity inhibits immunosuppressive receptor signaling. […] In parallel experiments, the same SHP-1 inhibitors augmented macrophage responses to the M1 stimuli IFNγ and LPS and enhanced proinflammatory cytokine production.
# [6] = tested on: TLR7/8 overexpressing pancreatic cancer cell line; conditions: stimulation of TLR7/8; cited from earlier work
# [7] = tested on: malignant melanoma and advanced malignancies; conditions: cited from earlier work
# macrophages [8] = test: Macrophage antigen presentation and proinflammatory response in presence of tumor cells with or without iShp1; assay type: cell-based; conditions: for pro-inflammatory activation of macrophages: combined with iShp1 (TPI-1), tumor milieu
# Method: FIGS. 16A-16D depicts activation of macrophage proinflammatory response and antigen presentation in a tumor milieu by SHP-1 inhibition (iShp1) combination regimens. FIG. 16A depicts the testing system. FIG. 16B and FIG. 16C depict effects of interferons with or without TPI-1. FIG. 16D depicts effects of various agents including IL-1 family cytokines (IL-1, IL-18), TNFα and TLR ligands combined with TPI-1.
# In vitro macrophages were assayed in the presence of tumor cells that ligate macrophage iRs with or without inhibition of SHP-1 (iShp1) by TPI-1. See the testing system in FIG. 16A.
# SHP-1 [9] = test: SHP-1 binding to macrophage iRs with phosphorylated ITIMs; assay type: cell-based; conditions: macrophages stimulated
# Description: Proinflammatory signal-induced Src family TK(s) mediate phosphorylation in the cytoplastic domain ITIMs that dock SHP-1 leading to SHP-1 activation.
# SHP-2 = SHP-2 binding to macrophage iRs with phosphorylated ITIMs; assay type: cell-based; conditions: macrophages stimulated
molecule,measurement,setting,value
Nc1nc2c(ncn2[C@@H]2O[C@@H]3COP(=O)(O)O[C@H]4[C@@H](O)[C@H](n5cnc6c(N)ncnc65)O[C@@H]4COP(=O)(O)O[C@@H]2[C@@H]3O)c(=O)[nH]1 [2′3′-cGAMP],PTP/SHP-1 activity induced in tumor,[1],induced spikes of PTP activities
"Nc1ncn([C@@H]2O[C@H](CO)[C@@H](O)[C@H]2O)c(=O)n1 [Azacitidine (AZA), Azacitidine]",PTP/SHP-1 activity induced in tumor,[1],spikes of SHP-1 activity are induced
COc1cc2cc(C(=O)CCC(=O)O)sc2cc1OC [MSA-2],macrophage proinflammatory response in co-culture with cancer cells,[2],abolishment of proinflammatory response and enhanced immunosuppression with high IL-10 and TGFβ production
O=C1C(=NNc2ccc(S(=O)(=O)O)cc2)C(c2ccc([N+](=O)[O-])cc2)=NN1c1ccccc1 [PHPS1],PTP activity diminished in macrophages,[3],< 10%
CCCCCCCCCCCCCC(=O)O[C@@H]1[C@@H](C)[C@@]2(O)[C@@H](C=C(CO)C[C@]3(O)C(=O)C(C)=C[C@@H]23)[C@@H]2C(C)(C)[C@]12OC(C)=O [PMA],SHP-1 activity in macrophages (effect in words),SHP-1 [4],moderately inhibited SHP-1; also recorded: reduced SHP-1 activity
O=C(CBr)c1ccc(O)cc1 [PTP-I],PTP activity diminished in macrophages,[3],> 70%
same,macrophage production of IL-12 and TNFα,macrophages [5]; IFNγ and LPS,dose-dependently augmented macrophage proinflammatory response with increased IL-12 and TNFα
same,macrophage production of IL-10 and TGFβ,macrophages [5]; IL-4/13 or IL-10 stimulation,dose-dependently augmented
CCOCc1nc2c(N)nc3ccccc3c2n1CC(C)(C)O [R848],macrophage proinflammatory response in co-culture with cancer cells,[2],abolishment of proinflammatory response and enhanced immunosuppression with high IL-10 and TGFβ production
same,cell proliferation and chemosensitivity,[6],increased cell proliferation and reduced chemosensitivity
CC1(N)CCN(c2cnc(-c3cccc(Cl)c3Cl)c(N)n2)CC1 [SHP099],PTP activity diminished in macrophages,[3],< 10%
"O.O.O.O.O.O.O.O.O.O=C([O-])[C@@H]1[O][Sb]2([O-])([O][Sb]34([OH])[O][C@H]([C@H](O)CO)[C@H]([O]3)[C@H](C(=O)[O-])[O]4)[O][C@H]([C@H](O)CO)[C@@H]1[O]2.[Na+].[Na+].[Na+] [SSG, sodium stibogluconate]",effect against tumor development,"[7]; combination with interferons, with or without chemotherapy",no effect was seen against tumor development
same,"most common toxic side-effects, share of patients","[7]; thrombocytopenia, elevated serum lipase, fatigue, fever, chills, anemia, hypokalemia, pancreatitis, skin rash",up to 68 % of patients
CC(C)[C@@](C)(O)[C@@H]1CN(c2nc(-c3[nH]nc4ncccc34)c(F)cc2Cl)CCN1 [VTX27],SHP-1 activity in macrophages (effect in words),SHP-1 [4],increased SHP-1 activity
IFNα,antigen presentation and proinflammatory response,"macrophages [8]; alone, without and with iShp1 (TPI-1)",did not induce antigen presentation or proinflammatory response
IL-1β: IL-1 family cytokine,pro-inflammatory activation of macrophages,macrophages [8],exhibited capacities of pro-inflammatory activation of macrophages
IL-4: immunosuppressive cytokine,binding of SHP-1 to iR ITIMs,SHP-1 [9],leads to binding of SHP-1
same,binding of SHP-2 to iR ITIMs,SHP-2,SHP-2 binding is dominated
IL-6: activating cytokine,binding of SHP-1 to iR ITIMs,SHP-1 [9],SHP-1 binding occurs exclusively under proinflammatory conditions
IL-10: immunosuppressive cytokine,binding of SHP-1 to iR ITIMs,SHP-1 [9],leads to binding of SHP-1
same,binding of SHP-2 to iR ITIMs,SHP-2,SHP-2 binding is dominated
IL-18: IL-1 family cytokine,pro-inflammatory activation of macrophages,macrophages [8],exhibited capacities of pro-inflammatory activation of macrophages
Phomoxanthone A [Phomoxanthone A (PXA)],SHP-1 activity in macrophages (effect in words),SHP-1 [4],"dose-dependently, moderately inhibited SHP-1 activity"
TGFβ: immunosuppressive cytokine,binding of SHP-1 to iR ITIMs,SHP-1 [9],leads to binding of SHP-1
same,binding of SHP-2 to iR ITIMs,SHP-2,SHP-2 binding is dominated
TNFα,binding of SHP-1 to iR ITIMs,SHP-1 [9],SHP-1 binding occurs exclusively under proinflammatory conditions
same,pro-inflammatory activation of macrophages,macrophages [8],exhibited capacities of pro-inflammatory activation of macrophages
lipopolysaccharide [LPS],binding of SHP-1 to iR ITIMs,SHP-1 [9],SHP-1 binding occurs exclusively under proinflammatory conditions
pervanadate,PTP activity diminished in macrophages,[3],> 70%
polycytidylic acid [PolyIC],binding of SHP-1 to iR ITIMs,SHP-1 [9],SHP-1 binding occurs exclusively under proinflammatory conditions
B1,binding of SHP-1 to iR ITIMs,SHP-1 [9],SHP-1 binding occurs exclusively under proinflammatory conditions
same,antigen presentation,macrophages [8]; plus iShp1 (TPI-1),significantly increased antigen presentation
same,proinflammatory cytokine production,macrophages [8]; plus iShp1 (TPI-1),did not elicit proinflammatory cytokine production
